Measured values as given in patent US20250235434A1, “RIFABUTIN ANALOGS FOR THE TREATMENT OF DISEASE” (BIOVERSYS AG, priority 2022, published 2025).
Values after ≈ are worked out from the molar mass of the structure shown. Read-outs that look alike come from different tables or passages of the source.

Legend:
Assay type in all cases: cell-based
[1] = system: S. aureus (UAMS-1625 strain); assay: MIC by broth microdilution against S. aureus; conditions: Staphylococcus aureus, 20 h, read-out: MIC S. aureus
[2] = system: A. baumannii (HUMC1 strain); assay: MIC by broth microdilution against A. baumannii; conditions: Acinetobacter baumannii, RPMI medium supplemented with 10% FCS, 35° C. for 20 hours, visual reading
[3] = system: M. abscessus (ATCC 19977); assay: MIC by broth microdilution against M. abscessus; conditions: Mycobacteroides abscessus
[4] = system: M. smegmatis (ATCC 700084); assay: MIC against M. smegmatis (resazurin assay); conditions: Mycolicibacterium smegmatis, ATCC700084, Middlebrook 7H9 + ADC, 90% growth inhibition, 20 h
M. xenopi (ATCC 19250) = assay: MIC against M. xenopi (resazurin assay); conditions: Mycobacterium xenopi, ATCC19250, 168 h, Middlebrook 7H9 + ADC, 90% growth inhibition, 7 days
M. avium (ATCC 25291) = assay: MIC against M. avium (resazurin assay); conditions: Mycobacterium avium, ATCC25291, 168 h, Middlebrook 7H9 + ADC, 90% growth inhibition, 7 days
M. kansasii (ATCC 12478) = assay: MIC against M. kansasii (resazurin assay); conditions: Mycobacterium kansasii, ATCC12478, 168 h, Middlebrook 7H9 + ADC, 90% growth inhibition, 7 days
[5] = system: M. tuberculosis H37Rv (ATCC 27294); assay: microbe, parasite or virus in culture; conditions: Mycobacterium tuberculosis, 120 h
[6] = ATCC19977, 20 h, ATCC 19977, Middlebrook 7H9 broth with ADC supplement, visual reading, read-out: MIC M. abscessus

Row | SMILES | MIC [1] [µg/mL] | MIC [2] [ng/mL] | MIC [3, 6] [µg/mL] | MIC [4] [µg/mL] | MIC (M. xenopi (ATCC 19250)) [µg/mL] | MIC (M. avium (ATCC 25291)) [µg/mL] | MIC (M. kansasii (ATCC 12478)) [µg/mL] | MIC [5] [ng/mL] | MIC ([3]; ATCC19977, tested M. abscessus strains, read-out: MIC value on M. abscessus) [µg/mL]
1 | CO[C@H]1/C=C/O[C@@]2(C)Oc3c(C)c(O)c4c(c3C2=O)C2=NC3(CCN(CC(C)C)CC3)NC2=C(NC(=O)/C(C)=C\C=C\[C@H](C)[C@H](O)[C@@H](C)[C@@H](O)[C@@H](C)[C@H](OC(=O)CNCC2CCN(C)CC2)[C@@H]1C)C4=O [Compound 1] | 0.06 (≈ 0.0617 µM) | ≤ 2 | 2 (≈ 2.06 µM) | – | – | – | – | – | –
2 | CO[C@H]1/C=C/O[C@@]2(C)Oc3c(C)c(O)c4c(c3C2=O)C2=NC3(CCN(CC(C)C)CC3)NC2=C(NC(=O)/C(C)=C\C=C\[C@H](C)[C@H](O)[C@@H](C)[C@@H](O)[C@@H](C)[C@H](OC(=O)CNC2CCN(C)CC2)[C@@H]1C)C4=O [Compound 2] | 0.06 (≈ 0.0626 µM) | ≤ 2 | 2 (≈ 2.09 µM) | 0.03 | 0.08 | 1.2 | 0.02 | 20 (≈ 0.0209 µM) | –
3 | CO[C@H]1/C=C/O[C@@]2(C)Oc3c(C)c(O)c4c(c3C2=O)C2=NC3(CCN(CC(C)C)CC3)NC2=C(NC(=O)/C(C)=C\C=C\[C@H](C)[C@H](O)[C@@H](C)[C@@H](O)[C@@H](C)[C@H](OC(=O)CN2CCC(N(C)C)CC2)[C@@H]1C)C4=O [Compound 3] | 0.03 (≈ 0.0308 µM) | ≤ 2 | 1 (≈ 1.03 µM) | 0.03 | 0.07 | 1.2 | 0.01 | 8 (≈ 0.00822 µM) | –
4 | CO[C@H]1/C=C/O[C@@]2(C)Oc3c(C)c(O)c4c(c3C2=O)C2=NC3(CCN(CC(C)C)CC3)NC2=C(NC(=O)/C(C)=C\C=C\[C@H](C)[C@H](O)[C@@H](C)[C@@H](O)[C@@H](C)[C@H](OC(=O)CN2CCCCC2)[C@@H]1C)C4=O [Compound 4] | 0.06 (≈ 0.0645 µM) | 4 (≈ 0.0043 µM) | 4 (≈ 4.3 µM) | – | – | – | – | – | –
5 | CO[C@H]1/C=C/O[C@@]2(C)Oc3c(C)c(O)c4c(c3C2=O)C2=NC3(CCN(CC(C)C)CC3)NC2=C(NC(=O)/C(C)=C\C=C\[C@H](C)[C@H](O)[C@@H](C)[C@@H](O)[C@@H](C)[C@H](OC(=O)CN2CCN(C)CC2)[C@@H]1C)C4=O [Compound 6] | 0.03 (≈ 0.0317 µM) | ≤ 2 | 1 (≈ 1.06 µM) | 0.03 | 0.04 | 1.3 | 0.01 | 8 (≈ 0.00846 µM) | –
6 | CO[C@H]1/C=C/O[C@@]2(C)Oc3c(C)c(O)c4c(c3C2=O)C2=NC3(CCN(CC(C)C)CC3)NC2=C(NC(=O)/C(C)=C\C=C\[C@H](C)[C@H](O)[C@@H](C)[C@@H](O)[C@@H](C)[C@H](OC(=O)CN2CCN(c3ccccc3)CC2)[C@@H]1C)C4=O [Compound 7] | 0.5 (≈ 0.496 µM) | 60 (≈ 0.0596 µM) | 0.5 (≈ 0.496 µM) | – | – | – | – | – | –
7 | CO[C@H]1/C=C/O[C@@]2(C)Oc3c(C)c(O)c4c(c3C2=O)C2=NC3(CCN(CC(C)C)CC3)NC2=C(NC(=O)/C(C)=C\C=C\[C@H](C)[C@H](O)[C@@H](C)[C@@H](O)[C@@H](C)[C@H](OC(=O)CNCCN2CCCCC2)[C@@H]1C)C4=O [Compound 8] | 0.06 (≈ 0.0617 µM) | ≤ 2 | 1 (≈ 1.03 µM) | – | – | – | – | – | –
8 | CO[C@H]1/C=C/O[C@@]2(C)Oc3c(C)c(O)c4c(c3C2=O)C2=NC3(CCN(CC(C)C)CC3)NC2=C(NC(=O)/C(C)=C\C=C\[C@H](C)[C@H](O)[C@@H](C)[C@@H](O)[C@@H](C)[C@H](OC(=O)CNCCN2CCN(C)CC2)[C@@H]1C)C4=O [Compound 9] | 0.06 (≈ 0.0607 µM) | ≤ 2 | 2 (≈ 2.02 µM) | – | – | – | – | – | –
9 | CO[C@H]1/C=C/O[C@@]2(C)Oc3c(C)c(O)c4c(c3C2=O)C2=NC3(CCN(CC(C)C)CC3)NC2=C(NC(=O)/C(C)=C\C=C\[C@H](C)[C@H](O)[C@@H](C)[C@@H](O)[C@@H](C)[C@H](OC(=O)CNCCN2CCOCC2)[C@@H]1C)C4=O [Compound 10] | 0.03 (≈ 0.0308 µM) | ≤ 2 | 1 (≈ 1.03 µM) | 0.1 | 0.01 | 1 | 0.015 | 8 (≈ 0.0082 µM) | –
10 | CO[C@H]1/C=C/O[C@@]2(C)Oc3c(C)c(O)c4c(c3C2=O)C2=NC3(CCN(CC(C)C)CC3)NC2=C(NC(=O)/C(C)=C\C=C\[C@H](C)[C@H](O)[C@@H](C)[C@@H](O)[C@@H](C)[C@H](OC(=O)CNCCCN2CCOCC2)[C@@H]1C)C4=O [Compound 11] | 0.06 (≈ 0.0607 µM) | 8 (≈ 0.00809 µM) | 2 (≈ 2.02 µM) | – | – | – | – | – | –
11 | CO[C@H]1/C=C/O[C@@]2(C)Oc3c(C)c(O)c4c(c3C2=O)C2=NC3(CCN(CC(C)C)CC3)NC2=C(NC(=O)/C(C)=C\C=C\[C@H](C)[C@H](O)[C@@H](C)[C@@H](O)[C@@H](C)[C@H](OC(=O)CNCCN(C)C)[C@@H]1C)C4=O [Compound 13] | 0.03 (≈ 0.0321 µM) | ≤ 2 | 2 (≈ 2.14 µM) | – | – | – | – | – | –
12 | CO[C@H]1/C=C/O[C@@]2(C)Oc3c(C)c(O)c4c(c3C2=O)C2=NC3(CCN(CC(C)C)CC3)NC2=C(NC(=O)/C(C)=C\C=C\[C@H](C)[C@H](O)[C@@H](C)[C@@H](O)[C@@H](C)[C@H](OC(=O)CNCC(C)C)[C@@H]1C)C4=O [Compound 17] | 0.06 (≈ 0.0653 µM) | 8 (≈ 0.00871 µM) | 4 (≈ 4.36 µM) | – | – | – | – | – | –
13 | CO[C@H]1/C=C/O[C@@]2(C)Oc3c(C)c(O)c4c(c3C2=O)C2=NC3(CCN(CC(C)C)CC3)NC2=C(NC(=O)/C(C)=C\C=C\[C@H](C)[C@H](O)[C@@H](C)[C@@H](O)[C@@H](C)[C@H](OC(=O)CN2CCC(Cc3ccccc3)CC2)[C@@H]1C)C4=O [Compound 21] | 4 (≈ 3.92 µM) | 125 (≈ 0.123 µM) | 2 (≈ 1.96 µM) | – | – | – | – | – | –
14 | COc1cc(CC2CCN(CC(=O)O[C@H]3[C@H](C)[C@H](O)[C@H](C)[C@@H](O)[C@@H](C)/C=C/C=C(/C)C(=O)NC4=C5NC6(CCN(CC(C)C)CC6)N=C5c5c(c(O)c(C)c6c5C(=O)[C@@](C)(O/C=C/[C@H](OC)[C@H]3C)O6)C4=O)CC2)cc(C(F)(F)F)c1 [Compound 22] | 4 (≈ 3.58 µM) | 250 (≈ 0.224 µM) | 4 (≈ 3.58 µM) | – | – | – | – | – | –
15 | CO[C@H]1/C=C/O[C@@]2(C)Oc3c(C)c(O)c4c(c3C2=O)C2=NC3(CCN(CC(C)C)CC3)NC2=C(NC(=O)/C(C)=C\C=C\[C@H](C)[C@H](O)[C@@H](C)[C@@H](O)[C@@H](C)[C@H](OC(=O)CN2CCC(C(O)c3nccn3C)CC2)[C@@H]1C)C4=O (stereo partly drawn) [Compound 23] | 0.125 (≈ 0.12 µM) | 4 (≈ 0.00385 µM) | 1 (≈ 0.961 µM) | – | – | – | – | – | –
16 | CO[C@H]1/C=C/O[C@@]2(C)Oc3c(C)c(O)c4c(c3C2=O)C2=NC3(CCN(CC(C)C)CC3)NC2=C(NC(=O)/C(C)=C\C=C\[C@H](C)[C@H](O)[C@@H](C)[C@@H](O)[C@@H](C)[C@H](OC(=O)CN2CCC(NC(=O)OC(C)(C)C)CC2)[C@@H]1C)C4=O [Compound 27] | 0.125 (≈ 0.12 µM) | 8 (≈ 0.00765 µM) | 0.25 (≈ 0.239 µM) | – | – | – | – | – | –
17 | CO[C@H]1/C=C/O[C@@]2(C)Oc3c(C)c(O)c4c(c3C2=O)C2=NC3(CCN(CC(C)C)CC3)NC2=C(NC(=O)/C(C)=C\C=C\[C@H](C)[C@H](O)[C@@H](C)[C@@H](O)[C@@H](C)[C@H](OC(=O)CN2CCC(N3CCn5ccnc5C3)CC2)[C@@H]1C)C4=O [Compound 30] | 0.06 (≈ 0.0571 µM) | ≤ 2 | 1 (≈ 0.951 µM) | – | – | – | – | – | –
18 | CO[C@H]1/C=C/O[C@@]2(C)Oc3c(C)c(O)c4c(c3C2=O)C2=NC3(CCN(CC(C)C)CC3)NC2=C(NC(=O)/C(C)=C\C=C\[C@H](C)[C@H](O)[C@@H](C)[C@@H](O)[C@@H](C)[C@H](OC(=O)CN2CC(Nc3ccc(F)cc3)C2)[C@@H]1C)C4=O [Compound 31] | 0.06 (≈ 0.0593 µM) | 8 (≈ 0.00791 µM) | 4 (≈ 3.96 µM) | – | – | – | – | – | –
19 | CO[C@H]1/C=C/O[C@@]2(C)Oc3c(C)c(O)c4c(c3C2=O)C2=NC3(CCN(CC(C)C)CC3)NC2=C(NC(=O)/C(C)=C\C=C\[C@H](C)[C@H](O)[C@@H](C)[C@@H](O)[C@@H](C)[C@H](OC(=O)CN2CC(n3cccc3)C2)[C@@H]1C)C4=O [Compound 32] | 0.03 (≈ 0.031 µM) | 8 (≈ 0.00827 µM) | 2 (≈ 2.07 µM) | – | – | – | – | – | –
20 | CC[N+](CC)(CC)CC(=O)O[C@H]1[C@H](C)[C@H](O)[C@H](C)[C@@H](O)[C@@H](C)/C=C/C=C(/C)C(=O)NC2=C3NC4(CCN(CC(C)C)CC4)N=C3c3c(c(O)c(C)c4c3C(=O)[C@@](C)(O/C=C/[C@H](OC)[C@H]1C)O4)C2=O [Compound 36] | 0.125 | ≤ 2 | 2 | – | – | – | – | – | –
21 | CO[C@H]1/C=C/O[C@@]2(C)Oc3c(C)c(O)c4c(c3C2=O)C2=NC3(CCN(CC(C)C)CC3)NC2=C(NC(=O)/C(C)=C\C=C\[C@H](C)[C@H](O)[C@@H](C)[C@@H](O)[C@@H](C)[C@H](OC(=O)C[n+]2ccccc2)[C@@H]1C)C4=O [Compound 37] | 0.25 | 4 | 2 | – | – | – | – | – | –
22 | CO[C@H]1/C=C/O[C@@]2(C)Oc3c(C)c(O)c4c(c3C2=O)C2=NC3(CCN(CC(C)C)CC3)NC2=C(NC(=O)/C(C)=C\C=C\[C@H](C)[C@H](O)[C@@H](C)[C@@H](O)[C@@H](C)[C@H](OC(=O)C[n+]2ccc(C)cc2)[C@@H]1C)C4=O [Compound 38] | 0.25 | 4 | 2 | – | – | – | – | – | –
23 | CO[C@H]1/C=C/O[C@@]2(C)Oc3c(C)c(O)c4c(O)c(c(/C=N/N5CCN(C)CC5)c(O)c4c3C2=O)NC(=O)/C(C)=C\C=C\[C@H](C)[C@H](O)[C@@H](C)[C@@H](O)[C@@H](C)[C@H](OC(C)=O)[C@@H]1C [Rifampicin, reference compound] | – | – | – | – | – | – | – | – | > 32
